From patent US9840513B2 (AbbVie S.à.r.l., priority 2015, dated 2017)

Target: T1, F508delCFTR cell surface expression in CFBE41o-F508delCFTR-HRP cells (Homo sapiens, UniProt P13569, DEL508-508)
T1 construct: fused on or other part: Horseradish peroxidase (HRP) reporter inserted in the fourth exofacial (extracellular) loop of CFTR; expression is doxycycline-inducible
Experiment: Cell Surface Expression-Horse Radish Peroxidase (CSE-HRP) Assay
Type: cell-based
Settings: for EC50: CFBE41o-F508delCFTR-HRP cells, 18-24 hours at 33° C., 8-point curve, highest concentration 20 μM; for Maximum % activity (%): maximum at any tested concentration, normalized to on-plate positive control (3 μM)
Summary of the method: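 Correctors incubated 18-24 h at 33 °C on doxycycline-induced (0.5 μg/mL, 72 h) CFBE41o-F508delCFTR-HRP cells, 3-fold series from 20 μM. After DPBS washes, luminol luminescence read; activity expressed relative to DMSO and a 3 μM positive control, EC50 fitted from triplicate plates.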

T1 sequence (P13569 with tags, fused parts or gaps DEL508-508 limits assumed): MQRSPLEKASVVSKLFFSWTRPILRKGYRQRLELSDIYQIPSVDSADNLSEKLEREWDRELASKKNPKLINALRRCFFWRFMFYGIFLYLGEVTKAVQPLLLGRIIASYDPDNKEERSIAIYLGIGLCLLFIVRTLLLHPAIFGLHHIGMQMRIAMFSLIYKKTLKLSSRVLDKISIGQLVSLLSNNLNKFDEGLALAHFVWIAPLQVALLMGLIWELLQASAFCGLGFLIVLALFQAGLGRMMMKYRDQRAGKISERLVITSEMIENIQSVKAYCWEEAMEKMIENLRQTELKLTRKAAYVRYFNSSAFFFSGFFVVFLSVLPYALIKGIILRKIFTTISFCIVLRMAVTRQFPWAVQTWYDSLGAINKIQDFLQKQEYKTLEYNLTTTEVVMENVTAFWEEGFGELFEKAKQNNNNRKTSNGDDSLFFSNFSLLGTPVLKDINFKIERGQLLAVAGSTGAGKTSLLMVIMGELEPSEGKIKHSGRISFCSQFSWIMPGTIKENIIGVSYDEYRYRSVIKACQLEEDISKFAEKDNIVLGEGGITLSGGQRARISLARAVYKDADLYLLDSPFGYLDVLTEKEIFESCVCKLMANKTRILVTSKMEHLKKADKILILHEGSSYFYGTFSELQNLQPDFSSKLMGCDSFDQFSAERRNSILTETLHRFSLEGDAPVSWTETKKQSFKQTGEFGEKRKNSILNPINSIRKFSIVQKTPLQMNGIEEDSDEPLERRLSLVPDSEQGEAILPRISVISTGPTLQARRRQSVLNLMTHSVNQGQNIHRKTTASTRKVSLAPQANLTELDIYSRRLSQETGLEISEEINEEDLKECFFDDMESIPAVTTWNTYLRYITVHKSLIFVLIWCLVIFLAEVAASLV
T1 sequence (P13569 919-1480 limits assumed, stated change not applied): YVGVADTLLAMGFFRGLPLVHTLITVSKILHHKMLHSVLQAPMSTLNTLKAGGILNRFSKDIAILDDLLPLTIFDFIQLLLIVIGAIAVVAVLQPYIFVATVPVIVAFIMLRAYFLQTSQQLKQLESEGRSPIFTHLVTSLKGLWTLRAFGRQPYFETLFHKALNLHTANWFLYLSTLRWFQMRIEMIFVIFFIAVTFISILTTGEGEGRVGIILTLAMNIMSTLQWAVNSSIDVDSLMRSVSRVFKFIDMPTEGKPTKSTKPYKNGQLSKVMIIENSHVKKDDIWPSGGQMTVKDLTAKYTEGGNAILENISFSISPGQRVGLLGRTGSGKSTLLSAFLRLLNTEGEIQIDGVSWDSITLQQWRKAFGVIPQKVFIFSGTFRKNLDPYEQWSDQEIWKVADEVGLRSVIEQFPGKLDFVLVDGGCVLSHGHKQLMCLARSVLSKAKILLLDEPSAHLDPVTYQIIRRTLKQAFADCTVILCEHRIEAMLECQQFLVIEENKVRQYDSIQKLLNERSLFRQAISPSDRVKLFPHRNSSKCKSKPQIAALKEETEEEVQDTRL

Structure (SMILES) | EC50 [nM] | Maximum % activity (%)
CNC(=O)c1cccc(-c2nc(NC(=O)C3(C)COc4cc5c(cc43)OC(F)(F)O5)ccc2C)c1 (centres unmarked) [Example 76, 2,2-difluoro-7-methyl-N-{5-methyl-6-[3-(methylcarbamoyl)phenyl]pyridin-2-yl}-6,7-dihydro-2H-furo[2,3-f][1,3]benzodioxole-7-carboxamide] | 720 | 111
Cc1ccc(NC(=O)[C@@]2(C)COc3cc4c(cc32)OC(F)(F)O4)nc1Cl [Example 77, (7R)—N-(6-chloro-5-methylpyridin-2-yl)-2,2-difluoro-7-methyl-6,7-dihydro-2H-furo[2,3-f][1,3]benzodioxole-7-carboxamide] | 6630 | 116
Cc1ccc(NC(=O)[C@@]2(C)COc3cc4c(cc32)OC(F)(F)O4)nc1-c1cccc(C#N)c1 [Example 78, (7R)—N-[6-(3-cyanophenyl)-5-methylpyridin-2-yl]-2,2-difluoro-7-methyl-6,7-dihydro-2H-furo[2,3-f][1,3]benzodioxole-7-carboxamide] | 570 | 95
COC(=O)c1ccc(-c2cccc(NC(=O)[C@@]3(C)COc4cc5c(cc43)OC(F)(F)O5)n2)cc1 [Example 79, methyl 4-(6-{[(7R)-2,2-difluoro-7-methyl-6,7-dihydro-2H-furo[2,3-f][1,3]benzodioxole-7-carbonyl]amino}pyridin-2-yl)benzoate] | 1180 | 151
C[C@]1(C(=O)Nc2ccc(N3CCCC3)cn2)COc2cc3c(cc21)OC(F)(F)O3 [Example 80, (7R)-2,2-difluoro-7-methyl-N-[5-(pyrrolidin-1-yl)pyridin-2-yl]-6,7-dihydro-2H-furo[2,3-f][1,3]benzodioxole-7-carboxamide] | 4750 | 147
C[C@]1(C(=O)Nc2cccc(-c3ccc(C(=O)O)cc3)n2)COc2cc3c(cc21)OC(F)(F)O3 [Example 81, 4-(6-{[(7R)-2,2-difluoro-7-methyl-6,7-dihydro-2H-furo[2,3-f][1,3]benzodioxole-7-carbonyl]amino}pyridin-2-yl)benzoic acid] | 1400 | 200
CCOC(=O)c1csc(-c2cccc(NC(=O)[C@@]3(C)COc4cc5c(cc43)OC(F)(F)O5)n2)c1 [Example 82, ethyl 5-(6-{[(7R)-2,2-difluoro-7-methyl-6,7-dihydro-2H-furo[2,3-f][1,3]benzodioxole-7-carbonyl]amino}pyridin-2-yl)thiophene-3-carboxylate] | 3160 | 116
Cc1ccc(-c2cccc(C(=O)O)c2)nc1NC(=O)[C@@]1(C)COc2cc3c(cc21)OC(F)(F)O3 [Example 84, 3-(6-{[(7R)-2,2-difluoro-7-methyl-6,7-dihydro-2H-furo[2,3-f][1,3]benzodioxole-7-carbonyl]amino}-5-methylpyridin-2-yl)benzoic acid] | 7510 | 46
C[C@]1(C(=O)Nc2cccc(F)n2)COc2cc3c(cc21)OC(F)(F)O3 [Example 85, (7R)-2,2-difluoro-N-(6-fluoropyridin-2-yl)-7-methyl-6,7-dihydro-2H-furo[2,3-f][1,3]benzodioxole-7-carboxamide] | 6690 | 90
C[C@]1(C(=O)Nc2cccc(-c3cc(C(=O)O)cs3)n2)COc2cc3c(cc21)OC(F)(F)O3 [Example 86, 5-(6-{[(7R)-2,2-difluoro-7-methyl-6,7-dihydro-2H-furo[2,3-f][1,3]benzodioxole-7-carbonyl]amino}pyridin-2-yl)thiophene-3-carboxylic acid] | 2840 | 112
C[C@]1(C(=O)Nc2cccc(N3CCOC(CO)C3)n2)COc2cc3c(cc21)OC(F)(F)O3 (stereo partly drawn) [Example 87, (7R)-2,2-difluoro-N-{6-[2-(hydroxymethyl)morpholin-4-yl]pyridin-2-yl}-7-methyl-6,7-dihydro-2H-furo[2,3-f][1,3]benzodioxole-7-carboxamide] | 1860 | 100
C[C@]1(C(=O)Nc2cccc(N3CC[C@H](O)C3)n2)COc2cc3c(cc21)OC(F)(F)O3 [Example 88, (7R)-2,2-difluoro-N-{6-[(3S)-3-hydroxypyrrolidin-1-yl]pyridin-2-yl}-7-methyl-6,7-dihydro-2H-furo[2,3-f][1,3]benzodioxole-7-carboxamide] | 730 | 113
COC(=O)c1ccc([C@H]2C[C@@H](NC(=O)[C@@]3(C)COc4cc5c(cc43)OC(F)(F)O5)c3ccc(OC)cc3O2)nc1 [Example 89E, methyl 6-[(2R,4R)-4-{[(7R)-2,2-difluoro-7-methyl-6,7-dihydro-2H-furo[2,3-f][1,3]benzodioxole-7-carbonyl]amino}-7-methoxy-3,4-dihydro-2H-1-benzopyran-2-yl]pyridine-3-carboxylate] | 18 | 116
C[C@]1(C(=O)Nc2cccc(N3CC[C@@H](O)C3)n2)COc2cc3c(cc21)OC(F)(F)O3 [Example 91, (7R)-2,2-difluoro-N-{6-[(3R)-3-hydroxypyrrolidin-1-yl]pyridin-2-yl}-7-methyl-6,7-dihydro-2H-furo[2,3-f][1,3]benzodioxole-7-carboxamide] | 210 | 116
C[C@]1(C(=O)Nc2cccc(NC[C@H](O)CO)n2)COc2cc3c(cc21)OC(F)(F)O3 [Example 93, (7R)—N-(6-{[(2S)-2,3-dihydroxypropyl]amino}pyridin-2-yl)-2,2-difluoro-7-methyl-6,7-dihydro-2H-furo[2,3-f][1,3]benzodioxole-7-carboxamide] | 1530 | 89
C[C@]1(C(=O)Nc2cnc(N3CCC(C(=O)O)C3)cn2)COc2cc3c(cc21)OC(F)(F)O3 (stereo partly drawn) [Example 94, 1-(5-{[(7R)-2,2-difluoro-7-methyl-6,7-dihydro-2H-furo[2,3-f][1,3]benzodioxole-7-carbonyl]amino}pyrazin-2-yl)pyrrolidine-3-carboxylic acid] | > 20000 | 8
CC1(C(=O)O)CN(c2cccc(NC(=O)[C@@]3(C)COc4cc5c(cc43)OC(F)(F)O5)n2)C1 [Example 96, 1-(6-{[(7R)-2,2-difluoro-7-methyl-6,7-dihydro-2H-furo[2,3-f][1,3]benzodioxole-7-carbonyl]amino}pyridin-2-yl)-3-methylazetidine-3-carboxylic acid] | 1310 | 139
C[C@]1(C(=O)Nc2cc(Br)cn(-c3ccc(C(=O)O)cc3)c2=O)COc2cc3c(cc21)OC(F)(F)O3 [Example 97, 4-[5-bromo-3-{[(7R)-2,2-difluoro-7-methyl-6,7-dihydro-2H-furo[2,3-f][1,3]benzodioxole-7-carbonyl]amino}-2-oxopyridin-1(2H)-yl]benzoic acid] | 480 | 148
C[C@]1(C(=O)Nc2cc(Br)cn(C[C@@H](O)CO)c2=O)COc2cc3c(cc21)OC(F)(F)O3 [Example 98, (7R)—N-{5-bromo-1-[(2R)-2,3-dihydroxypropyl]-2-oxo-1,2-dihydropyridin-3-yl}-2,2-difluoro-7-methyl-6,7-dihydro-2H-furo[2,3-f][1,3]benzodioxole-7-carboxamide] | 1140 | 143
C[C@]1(C(=O)Nc2cc(-c3ccccc3)cn(-c3ccc(C(=O)O)cc3)c2=O)COc2cc3c(cc21)OC(F)(F)O3 [Example 99, 4-[3-{[(7R)-2,2-difluoro-7-methyl-6,7-dihydro-2H-furo[2,3-f][1,3]benzodioxole-7-carbonyl]amino}-2-oxo-5-phenylpyridin-1(2H)-yl]benzoic acid] | 230 | 71
C[C@]1(C(=O)Nc2cc(-c3ccccc3)cn(C[C@@H](O)CO)c2=O)COc2cc3c(cc21)OC(F)(F)O3 [Example 100, (7R)—N-{1-[(2R)-2,3-dihydroxypropyl]-2-oxo-5-phenyl-1,2-dihydropyridin-3-yl}-2,2-difluoro-7-methyl-6,7-dihydro-2H-furo[2,3-f][1,3]benzodioxole-7-carboxamide] | 450 | 85
CC1(C)CCN(c2cccc(NC(=O)[C@@]3(C)COc4cc5c(cc43)OC(F)(F)O5)n2)C1 [Example 101, (7R)—N-[6-(3,3-dimethylpyrrolidin-1-yl)pyridin-2-yl]-2,2-difluoro-7-methyl-6,7-dihydro-2H-furo[2,3-f][1,3]benzodioxole-7-carboxamide] | 870 | 116
C[C@]1(C(=O)Nc2cnc(N3CCC[C@H]3C(=O)O)cn2)COc2cc3c(cc21)OC(F)(F)O3 [Example 102, 1-(5-{[(7R)-2,2-difluoro-7-methyl-6,7-dihydro-2H-furo[2,3-f][1,3]benzodioxole-7-carbonyl]amino}pyrazin-2-yl)proline] | 8290 | 61
Cc1cc(NC(=O)[C@@]2(C)COc3cc4c(cc32)OC(F)(F)O4)nc(-c2cccc(C(=O)O)c2)c1 [Example 103, 3-(6-{[(7R)-2,2-difluoro-7-methyl-6,7-dihydro-2H-furo[2,3-f][1,3]benzodioxole-7-carbonyl]amino}-4-methylpyridin-2-yl)benzoic acid] | 1720 | 170
CC1(C)OC[C@H]([C@@H](O)Cn2nc(-c3ccccc3)cc(NC(=O)[C@@]3(C)COc4cc5c(cc43)OC(F)(F)O5)c2=O)O1 [Example 104, (7R)—N-(2-{(2S)-2-[(4R)-2,2-dimethyl-1,3-dioxolan-4-yl]-2-hydroxyethyl}-3-oxo-6-phenyl-2,3-dihydropyridazin-4-yl)-2,2-difluoro-7-methyl-6,7-dihydro-2H-furo[2,3-f][1,3]benzodioxole-7-carboxamide] | > 20000 | 16
